Measurements taken from patent publication US20100041756A1, “METHOD OF MODULATING B CELL FUNCTIONING” (priority 2004, published 2010).

Key:
Type in all cases: cell-based, mouse
[1] = test system: T cells stimulated with anti-CD3/anti-CD28; experiment: Purified T cell proliferation, anti-CD3/anti-CD28, 3H-thymidine incorporation (Example 4)
Experimental: (§1) FIG. 10 is a graphical representation depicting that 3,4-DAA and 3-HAA inhibit B and T cell proliferation in vitro. Purified B and T cells were stimulated for 72 h with anti-CD40 (a), or anti-CD3/anti-CD28 (b) respectively, in the presence of varying doses of 3,4-DAA, or 3-HAA.
(§2) A single cell suspension was prepared from spleen by mincing through a cell strainer, and erythrocytes were lysed using an ammonium chloride solution (Sigma, St Louis, Mo., USA). B cells were positively enriched by using anti-IgM MACS microbeads, and T cells were positively enriched using anti-CD4 MACS microbeads and the MACS system, according to the manufacturer's guidelines (Miltenyi Biotec, Bergisch Gladbach, Germany). Purity was assessed by flow cytometric analysis (B cell>90% CD19+, T cell>90% CD4+). Cells were cultured at 5×10^5 cells/ml in 200 μl complete RPMI, as above, in a flat bottom 96-well plate and cultured for 72 h. B cells were stimulated with anti-CD40 monoclonal antibody (10 μg/ml; BD), and T cells were stimulated with 5 μg/ml plate-bound anti-CD3 (BD), 5 μg/ml soluble anti-CD28 (BD). Tranilast, 3-HAA, or vehicle (DMSO) were incubated at concentrations stated with the cultures. 48 hours after stimulation, 100 μl culture medium was collected, and cells were pulsed with 1 μCi ^3H thymidine per well for 18 h. Cells were then harvested and plates assessed for incorporation. Each assay was performed on a minimum of 3 occasions. Data shown is of one representative experiment, and is expressed as mean+/−SD of triplicate in culture. IFN-γ, IL-10 and IL-5 levels was assessed in the culture medium by ELISA, as above.

[2] = test system: T cells stimulated with anti-CD3/anti-CD28; experiment: Cytokine production by stimulated T cells in vitro (ELISA)
Experimental: as §1, §2

[3] = test system: B cells stimulated with anti-CD40; experiment: Purified B cell proliferation, anti-CD40, 3H-thymidine incorporation (Example 4)
Experimental: as §1, §2

Nc1c(O)cccc1C(=O)O [3-HAA, 3-Hydroxyanthranilic acid]
IC50 ([1]; Mus musculus, T-cell, anti-CD3/CD28, 72 h, 3H-thymidine (FIG. 10B), read-out: IC50 for inhibition of T cell proliferation): 100 µM
T cell proliferation ([1]; anti-CD3/CD28, varying doses (FIG. 10B)): dose-dependently inhibited
IFN-γ production by T-cells ([2]; FIG. 10C): dose-dependently reduced
IL-10 production by T-cells ([2]; FIG. 10D): increased
IL-5 production by T-cells ([2]; FIG. 10E): increased
IC50 ([3]; Mus musculus, B-cell, anti-CD40, 72 h, 3H-thymidine (FIG. 10A), read-out: IC50 for inhibition of B cell proliferation): 64.7 µM
B cell proliferation ([3]; anti-CD40, varying doses (FIG. 10A)): dose-dependently inhibited
